Measurements published in patent US10519114B2, “Peptidomimetics and methods of using the same” (The Regents of the University of Michigan, priority 2016, dated 2019).

Legend:
[1] = biological target: T1, rat μ (C6-MOR) opioid receptor (Rattus norvegicus, UniProt P33535); experiment: Radioligand binding assay, [3H]diprenorphine displacement, MOR; settings: displacement of 0.2 nM [3H]diprenorphine, C6-MOR membranes; mean ± standard error
T1 construct: expressed in transfected cells
Procedure, shortened: (§1)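 Competitive displacement of 0.2 nM [3H]diprenorphine measured at equilibrium (1 h, room temperature, 50 mM Tris-HCl pH 7.4) on membranes of C6-MOR, C6-DOR (rat) or CHO-KOR (human) cells. 10 μM naloxone defined nonspecific binding; Ki derived by fitting a logistic equation; mean±SE of ≥3 duplicate assays.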

[2] = biological target: T2, rat δ (C6-DOR) opioid receptor (Rattus norvegicus, UniProt P33533); experiment: Radioligand binding assay, [3H]diprenorphine displacement, DOR; settings: displacement of 0.2 nM [3H]diprenorphine, C6-DOR membranes; mean ± standard error
T2 construct: expressed in transfected cells
Procedure, shortened: as §1

[3] = biological target: T3, human κ (CHO-KOR) opioid receptor (Homo sapiens, UniProt P41145); experiment: Radioligand binding assay, [3H]diprenorphine displacement, KOR; settings: displacement of 0.2 nM [3H]diprenorphine, CHO-KOR membranes; mean ± standard error
T3 construct: expressed in transfected cells
Protocol: (§2) In Vitro Pharmacology-Cell Lines and Membrane Preparations. All tissue culture reagents were purchased from Gibco Life Sciences (Grand Island, N.Y., U.S.). C6-rat glioma cells stably transfected with a rat μ (C6-MOR) or rat δ (C6-DOR) opioid receptor20 and Chinese hamster ovary (CHO) cells stably expressing a human K (CHO-KOR) opioid receptor21 were used for all in vitro assays. Cells were grown to confluence at 37° C. in 5% CO2 in Dulbecco's modified Eagle medium containing 10% fetal bovine serum and 5% penicillin/streptomycin. Membranes were prepared by washing confluent cells three times with ice cold phosphate buffered saline (0.9% NaCl, 0.61 mM Na2HPO4, 0.38 mM KH2PO4, pH 7.4). Cells were detached from the plates by incubation in warm harvesting buffer (20 mM HEPES, 150 mM NaCl, 0.68 mM EDTA, pH 7.4) and pelleted by centrifugation at 200 g for 3 min. The cell pellet was suspended in ice-cold 50 mM Tris-HCl buffer, pH 7.4, and homogenized with a Tissue Tearor (Biospec Products, Inc., Bartlesville, Okla., U.S.) for 20 s at setting 4. The homogenate was centrifuged at 20 000 g for 20 min at 4° C., and the pellet was rehomogenized in 50 mM Tris-HCl with a Tissue Tearor for 10 s at setting 2, followed by recentrifugation. The final pellet was resuspended in 50 mM Tris-HCl and frozen in aliquots at […]. Protein concentration was determined via Bradford assay using bovine serum albumin as the standard.
Radioligand Binding Assays. Radioactive compounds were purchased from Perkin-Elmer (Waltham, Mass., U.S.). Opioid ligand binding assays were performed using competitive displacement of 0.2 nM [3H]diprenorphine (250 μCi, 1.85 TBq/mmol) by the test compound from membrane preparations containing opioid receptors. The assay mixture, containing membrane suspension (20 μg protein/tube) in 50 mM Tris-HCl buffer (pH 7.4), [3H]diprenorphine, and various concentrations of test peptide, was incubated at room temperature for 1 h to allow binding to reach equilibrium. The samples were rapidly filtered through Whatman GF/C filters using a Brandel harvester (Brandel, Gaithersburg, Md., U.S.) and washed three times with 50 mM Tris-HCl buffer. The radioactivity retained on dried filters was determined by liquid scintillation counting after saturation with EcoLume liquid scintillation cocktail in a Wallac 1450 MicroBeta (Perkin-Elmer, Waltham, Mass., U.S.). Nonspecific binding was determined using 10 μM naloxone. Inhibitory constant (Ki) values were calculated using nonlinear regression analysis to fit a logistic equation to the competition data using GraphPad Prism, version 5.01, for Windows (GraphPad Software Inc., La Jolla, Calif.). The results presented are the mean±standard error from at least three separate assays performed in duplicate.

[4] = biological target: T1, rat μ (C6-MOR) opioid receptor; experiment: Stimulation of [35S]GTPγS binding, MOR; format: biochemical; settings: for EC50: [35S]GTPγS binding, C6-MOR membranes, mean ± standard error; for Emax: [35S]GTPγS maximal stimulation compared with 10 μM standard DAMGO
Procedure, shortened: (§3)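 Membranes (10–20 μg protein) from C6 glioma cells expressing rat MOR or DOR, or CHO cells expressing human KOR, were incubated 1 h at room temperature with 0.1 nM [35S]GTPγS, 30 μM GDP and test peptides in Tris buffer pH 7.4. Bound label was filtered and counted; maximal stimulation, by nonlinear regression, was relative to 10 μM DAMGO (MOR), DPDPE (DOR) or U69,593 (KOR).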

[5] = biological target: T2, rat δ (C6-DOR) opioid receptor; experiment: Stimulation of [35S]GTPγS binding, DOR; format: biochemical; settings: for EC50 / EC50 (nm) DOR: [35S]GTPγS binding, C6-DOR membranes, mean ± standard error; for Emax / % stimulation DOR: [35S]GTPγS maximal stimulation compared with 10 μM standard DPDPE
Procedure, shortened: as §3

[6] = biological target: T3, human κ (CHO-KOR) opioid receptor; experiment: Stimulation of [35S]GTPγS binding, KOR; format: biochemical
Protocol: as §2
Stimulation of [^35S]GTPyS Binding. Agonist stimulation of [35S]guanosine 5′-O-[γ-thio]triphosphate ([^35S]GTPγS, 1250 Ci, 46.2 TBq/mmol) binding was measured as described previously Briefly, membranes (10-20 μg of protein/tube) were incubated 1 h at room temperature in GTPyS buffer (50 mM Tris-HCl, 100 mM NaCl, 5 mM MgCl2, pH 7.4) containing 0.1 nM [^35S]GTPγS, 30 μM guanosine diphosphate (GDP), and varying concentrations of test peptides. Peptide stimulation of [^35S]GTPyS was compared with 10 μM standard compounds [D-Ala^2,N-MePhe^4,Gly-ol]encephalin (DAMGO) at MOR, D-Pen^2,5-enkephalin (DPDPE) at DOR, or […] at KOR. The reaction was terminated by rapidly filtering through GF/C filters and washing 10 times with GTPyS buffer, and retained radioactivity was measured as described above. The results presented are the mean±standard error from at least three separate assays performed in duplicate; maximal stimulation was determined using nonlinear regression analysis with GraphPad Prism (GraphPad Software Inc., La Jolla, Calif.).

[7] = [35S]GTPγS binding, CHO-KOR membranes, mean ± standard error
[8] = [35S]GTPγS maximal stimulation compared with 10 μM standard U-69,593

T3 sequence (P41145 whole entry): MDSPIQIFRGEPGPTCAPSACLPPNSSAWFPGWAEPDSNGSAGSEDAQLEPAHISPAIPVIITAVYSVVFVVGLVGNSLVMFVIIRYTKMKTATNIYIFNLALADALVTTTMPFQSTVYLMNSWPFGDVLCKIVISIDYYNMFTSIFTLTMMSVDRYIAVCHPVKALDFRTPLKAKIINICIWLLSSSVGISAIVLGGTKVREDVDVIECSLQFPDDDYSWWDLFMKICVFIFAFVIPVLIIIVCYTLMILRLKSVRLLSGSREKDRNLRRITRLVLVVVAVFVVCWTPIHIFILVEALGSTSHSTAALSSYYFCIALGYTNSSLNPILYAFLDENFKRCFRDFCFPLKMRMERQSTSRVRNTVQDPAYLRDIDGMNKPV
T2 sequence (P33533 whole entry): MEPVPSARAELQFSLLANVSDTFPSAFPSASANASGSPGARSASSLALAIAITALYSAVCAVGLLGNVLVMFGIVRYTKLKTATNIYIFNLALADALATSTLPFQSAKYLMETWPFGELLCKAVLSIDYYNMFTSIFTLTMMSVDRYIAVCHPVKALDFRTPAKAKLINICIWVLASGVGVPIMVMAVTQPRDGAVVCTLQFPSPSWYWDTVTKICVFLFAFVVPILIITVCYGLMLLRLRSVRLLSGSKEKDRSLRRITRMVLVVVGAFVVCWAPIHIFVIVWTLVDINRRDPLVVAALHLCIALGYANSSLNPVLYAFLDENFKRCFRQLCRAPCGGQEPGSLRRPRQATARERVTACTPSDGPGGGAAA
T1 sequence (P33535 whole entry): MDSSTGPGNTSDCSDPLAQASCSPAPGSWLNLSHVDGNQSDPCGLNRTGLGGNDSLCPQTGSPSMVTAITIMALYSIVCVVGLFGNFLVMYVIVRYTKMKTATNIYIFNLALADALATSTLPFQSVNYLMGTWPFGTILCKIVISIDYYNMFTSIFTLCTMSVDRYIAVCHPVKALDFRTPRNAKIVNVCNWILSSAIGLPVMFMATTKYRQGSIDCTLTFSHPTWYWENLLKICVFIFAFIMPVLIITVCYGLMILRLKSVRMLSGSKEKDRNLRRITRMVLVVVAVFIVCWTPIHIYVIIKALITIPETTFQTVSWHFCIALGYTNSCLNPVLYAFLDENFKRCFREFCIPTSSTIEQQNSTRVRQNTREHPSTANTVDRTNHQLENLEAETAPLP

| SMILES | Ki [1] [nM] | Ki [2] [nM] | Ki [3] [nM] | EC50 [4] [nM] | Emax [4] [%] | EC50 [5] [nM] | Emax [5] [%] | EC50 [6, 7] [nM] | Emax [6, 8] [%] | EC50 (nm) DOR [5] | % stimulation DOR [5] | EC50 (nm) KOR [6, 7] | % stimulation KOR [6, 8] |
| --- | --- | --- | --- | --- | --- | --- | --- | --- | --- | --- | --- | --- | --- |
| Cc1cc(O)cc(C)c1C[C@H](N)C(=O)N(C)[C@@H]1CCNc2ccc(Cc3ccccc3)cc21 [Compound 1001] | 0.9 ± 0.3 | 15.7 ± 3.7 | 116 ± 30 | 3 ± 0.31 | 80.6 ± 4.7 | 410 ± 138 | 12.6 ± 5.5 | 488 ± 142 | 3.9 ± 0.9 |  |  |  |  |
| Cc1cc(O)cc(C)c1C[C@H](N)C(=O)N(C)[C@H]1CCNc2ccc(Cc3ccccc3)cc21 [Compound 1002] | 0.8 ± 0.04 | 8.5 ± 0.2 | 4.1 ± 0.4 | 0.463 ± 0.1 | 65.6 ± 4.4 |  | 2.2 ± 2.2 | 7.2 ± 0.4 | 8.3 ± 2.4 |  |  |  |  |
| Cc1cc(O)cc(C)c1C[C@H](N)C(=O)N[C@@H]1CCN(C)c2ccc(Cc3ccccc3)cc21 [Compound 1004] | 0.555 ± 0.242 | 7.3 ± 3.5 | 27.8 ± 0.7 | 4 ± 0.9 | 102 ± 4.6 | 486 | 4.3 ± 4.3 | 2220 ± 1020 | 44 ± 8.2 |  |  |  |  |
| Cc1cc(O)cc(C)c1C[C@H](N)C(=O)N[C@H]1CCN(C)c2ccc(Cc3ccccc3)cc21 [Compound 1005] | 71.4 ± 18.4 | 138 ± 29.8 | 632 ± 78 | 214 ± 41 | 72.2 ± 3.6 |  | 0 |  | 1.6 ± 1.4 |  |  |  |  |
| CCCN1CC[C@@H](NC(=O)[C@@H](N)Cc2c(C)cc(O)cc2C)c2cc(Cc3ccccc3)ccc21 [Compound 1006] | 0.34 ± 0.21 | 1.72 ± 0.61 | 71.7 ± 20 | 16.4 ± 8.18 | 83.1 ± 3.25 | 2330 ± 1030 | 39.3 ± 5.45 | 5010 ± 1020 | 38.2 ± 3.42 |  |  |  |  |
| Cc1ccc(Cc2ccc3c(c2)[C@H](NC(=O)[C@@H](N)Cc2c(C)cc(O)cc2C)CCN3)cc1 [Compound 1007] | 0.11 | 6.1 | 18 |  | 99 |  | 13 |  | 14 |  |  |  |  |
| Cc1ccc(Cc2ccc3c(c2)[C@@H](NC(=O)[C@@H](N)Cc2c(C)cc(O)cc2C)CCN3)cc1 [Compound 1008] | 11 | 582 | 50 |  | 55 |  | 3 |  | 0 |  |  |  |  |
| Cc1cc(O)cc(C)c1C[C@H](N)C(=O)N[C@@H]1CCNc2ccc(Cc3ccc(F)cc3)cc21 [Compound 1009] | 0.07 | 4 | 6.6 |  | 69 |  | 16 |  | 9 |  |  |  |  |
| Cc1cc(O)cc(C)c1C[C@H](N)C(=O)N[C@H]1CCNc2ccc(Cc3ccc(F)cc3)cc21 [Compound 1010] | 10 | 190 | 90 |  | 58 |  | 12 |  | 0 |  |  |  |  |
| CCCCCCc1ccc2c(c1)[C@H](NC(=O)[C@@H](N)Cc1c(C)cc(O)cc1C)CCN2 [Compound 1011] | 0.13 ± 0.02 | 5.89 ± 0.76 | 15.1 ± 5.7 | 2.41 ± 0.81 | 35.9 ± 5.28 | 1.7 | 2.5 ± 2.5 | 773 ± 26.5 | 34.6 ± 1.11 |  |  |  |  |
| Cc1cc(O)cc(C)c1C[C@H](N)C(=O)N[C@@H]1CCNc2cc(O)c(Cc3ccccc3)cc21 [Compound 1046] | 0.33 ± 0.14 | 2.74 ± 0.05 | 15.1 | 9.86 ± 3.79 | 94.7 ± 4.19 | 237 | 20.3 |  |  |  |  |  |  |
| Cc1cc(O)cc(C)c1C[C@H](N)C(=O)N[C@@H]1CCNc2ccc(Cn3n[n+]([O-])c4ccc(Cl)cc43)cc21 [Compound 1047] | 0.35 ± 0.05 | 3.54 ± 0.83 | 22.5 ± 8.83 | 3.45 ± 0.67 | 81.6 ± 1.48 |  |  |  |  | dns | dns |  |  |
| CCCc1cc(Br)cc2c1NCC[C@H]2NC(=O)[C@@H](N)Cc1c(C)cc(O)cc1C [Compound 1058] | 21.7 ± 8.06 | 45.9 ± 22.6 | 208 ± 16 | 859 | 12.6 |  |  |  |  |  |  | dns | dns |
| Cc1cc(O)cc(C)c1C[C@H](N)C(=O)N[C@@H]1CCNc2c(C(=O)Nc3ccccc3)cc(Cc3ccccc3)cc21 [Compound 1103] | 0.36 | 2.17 | 29.4 | 27.3 | 62.7 |  |  |  |  | dns | dns |  |  |
| Cc1cc(O)cc(C)c1C[C@H](N)C(=O)N[C@@H]1CCCc2ccc(Oc3ccccc3)cc21 [Compound 1118] | 0.33 ± 0.09 | 13 ± 1.01 | 38.5 ± 5.39 | 43 ± 14 | 41.9 ± 8.97 |  | 1.65 ± 1.65 |  |  |  |  |  |  |
